In patent US20250017998A1, “SP-8356, EMODIN, AND IT603 ENHANCE BEIGE ADIPOCYTE ACTIVITY AND ALLEVIATE OBESITY AND DIABETES VIA UNCOUPLING PROTEIN 1 (UCP1)-INDEPENDENT MECHANISM” (The Chinese University of Hong Kong, priority 2023, published 2025):

Key:
[1] = test system: UCP1 knockout human beige adipocytes; assay: Seahorse Mitochondrial Stress Test, oxygen consumption rate in UCP1 knockout human beige adipocytes; assay type: cell-based; settings: 1 μM, 24 h, UCP1 knockout hiPSC-derived beige adipocytes, vs DMSO (FIGS. 2D-2F)
Experimental: (§1) FIGS. 2A-2F. SP-8356, emodin, and IT603 increase energy expenditure in human beige adipocytes in a UCP1-independent manner. WT or UCP1 knockout hiPSCs were differentiated to beige adipocytes followed by treatment with SP-8356 (1 μM), Emodin (1 μM), and IT603 (1 μM) for 24 h, respectively. DMSO was used as the vehicle control. The oxygen consumption rate (OCR) was examined by the Seahorse Mitochondrial Stress Test assay. (FIGS. 2A-2C) OCR in WT human beige adipocytes treated with SP-8356, Emodin, and IT603, respectively. (FIGS. 2D-2F) OCR in UCP1 knockout human beige adipocytes treated with SP-8356, Emodin, and IT603, respectively. *p<0.05, **p<0.01. A total of 20 days was required for hiPSC differentiation into beige adipocytes. We used BMP4 (10 ng/mL) and ActivinA (25 ng/mL) from day 0 to day 4 to induce mesodermal differentiation in the first stage. We then induce mesodermal progenitors to differentiate into adipocyte progenitors with insulin ([…]), isobutylmethylxanthine (IBMX) (500 μmol/L), dexamethasone (1 μmol/L), and indomethacin (50 μmol/L) from day 4 to day 10. Eventually, mature beige adipocytes will be formed by insulin (1 μg/mL) induction on day 10 to 20. […] were plated in the XF96 plates (Agilent Technologies, Inc., Santa Clara, CA) and differentiated into the beige adipocytes. The XF Cell Mito Stress Test Kit (Seahorse Bioscience, 103015-100) was used to perform the assay by following the manufacturer's instructions.

[2] = test system: WT human beige adipocytes; assay: Seahorse Mitochondrial Stress Test, oxygen consumption rate in WT human beige adipocytes; assay type: cell-based; settings: 1 μM, 24 h, WT hiPSC-derived beige adipocytes, vs DMSO (FIGS. 2A-2C)
Experimental: as §1

LETMD1 [3] = assay: RNA-seq of LETMD1 mRNA in hiPSC-derived beige adipocytes; assay type: cell-based, human; settings: 0.1 μM, 24 h, RNA sequencing (FIG. 1B)
Experimental: (§2) FIGS. 1A-1C. Generation and characterization of the LETMD1-tdTomato reporter hiPSC. (FIG. 1A) Schematic illustration of the knock-in design for the LETMD1-tdTomato reporter hiPSCs. (FIG. 1B) hiPSCs were differentiated into beige adipocytes and treated with β3 adrenergic receptor (β3-AR) agonist Mirabegron (0.1 μM) for 24 h and subjected to RNA-seq. The fold change of LETMD1 and its analogue LETM1 were plotted. (FIG. 1C) Representative images of tdTomato fluorescence intensity in LETMD1 reporter hiPSC-derived beige adipocytes treated with or without Mirabegron (0.1 μM) for 24 h.
A total of 20 days was required for hiPSC differentiation into beige adipocytes. We used BMP4 (10 ng/mL) and ActivinA (25 ng/mL) from day 0 to day 4 to induce mesodermal differentiation in the first stage. We then induce mesodermal progenitors to differentiate into adipocyte progenitors with insulin ([…]), isobutylmethylxanthine (IBMX) (500 μmol/L), dexamethasone (1 μmol/L), and indomethacin (50 μmol/L) from day 4 to day 10. […]
(§3) To monitor the endogenous LETMD1 expression in human iPSCs with ease, we generated a fluorescent protein-based reporter human iPS cell line using a CRISPR/Cas9-mediated knock-in (KI) system (FIG. 1A). […] This cell line enables us to monitor the endogenous expression of LETMD1 in a high-throughput manner using the red fluorescence intensity as a surrogate.

LETMD1 [4] = assay: LETMD1-tdTomato reporter hiPSC-derived beige adipocytes, red fluorescence; assay type: cell-based, human; settings: 0.1 μM, 24 h, LETMD1 reporter hiPSC-derived beige adipocytes (FIG. 1C)
Experimental: as §2
A total of 20 days was required for hiPSC differentiation into beige adipocytes. […]
LETMD1 reporter hiPSCs were plated in the 96-well plates and differentiated into beige adipocytes. […] After that, the red fluorescent signals were quantified by the ThermoFisher (Waltham, MA) Varioskan Multimode Microplate Reader. […] measurement for each compound was normalized to the vehicle control group.
as §3

Structure (SMILES) | oxygen consumption rate (OCR) [1] | oxygen consumption rate (OCR) [2] | mRNA level of LETMD1 (LETMD1 [3]) | density of tdTomato fluorescent protein (LETMD1 [4])
COc1cc(Br)cc(/C=C2/NC(=S)NC2=O)c1O [IT603] | enhanced the OCR | showed most significant capacity to elevate the OCR | – | –
Nc1nc(CC(=O)Nc2ccc(CCNC[C@H](O)c3ccccc3)cc2)cs1 [Mirabegron] | – | – | significantly increased | increased significantly
COc1cc(/C=C/C2=CC(=O)[C@H]3C[C@@H]2C3(C)C)cc(O)c1O [SP-8356] | enhanced the OCR | showed most significant capacity to elevate the OCR | – | –
Cc1cc(O)c2c(c1)C(=O)c1cc(O)cc(O)c1C2=O [emodin] | enhanced the OCR | showed most significant capacity to elevate the OCR | – | –
